The nature of this data set: S-PMA concentration in urine samples from neonates and adults, by automatic mass spectrometry analytical system (on-line C18 cartridge, ESI-MS/MS). The data set is classed as in vivo, human. As for the experimental part: The collected urine samples were passed through 0.2 μm filtration membranes. An aliquot of 400 μL of filtered urine was firstly mixed with […] of 20% acetic acid and 100 μL of 1000 μg/L internal standard (IS), N-t-BOC-S-(p-methyl-benyl)-L-cysteine, with a known amount of S-PMA added when spiking experiments were performed, and diluted with 1400 μL of deionized water. From the total volume of 2000 μL, 200 μL of aliquot was injected into the analytical system (FIG. 1) for analysis. No other sample pretreatment procedures were performed or required other than the filtration described above. This can greatly simplify preparation procedures and save time.
Samples were loaded onto the C18 cartridge 2 (particle size 3 μm) by the pump 10 of autosampler 1 (as shown in FIG. 1) using 100% water at 0.6 mL/min, and were washed with 100% water for optimization time of 12 minutes (1.0, 2.0, 3.0, 4.0, 5.0, 6.0, 7.0, 8.0, 10.0, 12.0, 13.0, 14.0). This is to remove highly hydrophilic components of the urine samples to avoid interference with the subsequent detection results of spectrometry 4. The switching unit 3 (valve) was then activated to the Elute position and the sample was eluted with 1.0 mL/min 100% methanol provided by pump 10′ from cartridge 2 into the mass spectrometry 4 for analysis.
The mass spectrometry used in this invention is the API 365 Triple Quadrupole MS/MS.
Using the process described in Embodiment 1 above, this invention was used to establish the optimal experimental mode of quantitative detection of organic toxicant exposure in the human body using an automatic mass spectrometry analytical system. This Embodiment is to analyze the S-PMA concentration in urine samples collected from six neonates and six adults in the same hospital; the results are listed in Table 1. In the automatic mass spectrometry analytical system of this invention, each analysis took less than 18 minutes, and therefore 80 urine samples could be analyzed within 24 hours.

`CC(=O)NC(CSc1ccccc1)C(=O)O` (centres unmarked) [S-PMA, S-phenyl mercapturic acid]: the “S-PMA” value worked out at 0.560 µg/L (Adult 1, non-smoker); 1.268 µg/L (Adult 2, non-smoker); 1.411 µg/L (Adult 3, non-smoker); 4.196 µg/L (Adult 4, non-smoker); 0.993 µg/L (Adult 5, non-smoker); 1.255 µg/L (Adult 6, non-smoker). For the same compound, the “S-PMA” value is, setting by setting: (Neonate 1) 0.249 µg/L; (Neonate 2) 0.345 µg/L; (Neonate 3) 0.322 µg/L; (Neonate 4) 0.365 µg/L; (Neonate 5) 0.356 µg/L; (Neonate 6) 0.348 µg/L. The “S-PMA Arithmetic Mean” value reads like this: (six adults, non-smokers) 1.614 µg/L; (six neonates) 0.331 µg/L.

The values are drawn from patent publication US20040043503A1, “Automatic mass spectrometry analytical system for the quantitative detection of organic toxicant exposure in the human body” (priority 2002, published 2004).
